Laboratory results as given in patent US8663653B2, “Efficient cell culture system for hepatitis C virus genotype 2B” (priority 2008, dated 2014).
“Also recorded” adds a separate entry of the source.

Test system: JFH1-based recombinants of genotypes 1a, 1b, 2a, 2b, and 6a
Assay type: cell-based, hepatitis C virus

| SMILES | effect on number of infected cells and supernatant HCV RNA titers |
| --- | --- |
| NC(=O)c1ncn([C@@H]2O[C@H](CO)[C@@H](O)[C@H]2O)n1 [ribavirin] | no apparent effect; also recorded: did not decrease the number of infected cells or supernatant HCV RNA titers |
| NC12CC3CC(CC(C3)C1)C2 [amantadine] | no apparent effect; also recorded: did not decrease the number of infected cells or supernatant HCV RNA titers |
